The values below come from ChEMBL document CHEMBL1143380, “N-[6-amino-2-(heteroaryl)pyrimidin-4-yl]acetamides as A2A receptor antagonists with improved drug like properties and in vivo efficacy” (J Med Chem, 2009).

Molecules are shown by their SMILES. ≈ marks a conversion by molar mass, not a printed value.

The species entered for data set [1] is Homo sapiens. Briefly: Selectivity ratio of Ki for human adenosine A1 receptor to Ki for human adenosine A2A receptor.
For data set [2], the target named is T1, Adenosine receptor A1 (Homo sapiens, UniProt P30542).
T1 sequence (P30542 whole entry): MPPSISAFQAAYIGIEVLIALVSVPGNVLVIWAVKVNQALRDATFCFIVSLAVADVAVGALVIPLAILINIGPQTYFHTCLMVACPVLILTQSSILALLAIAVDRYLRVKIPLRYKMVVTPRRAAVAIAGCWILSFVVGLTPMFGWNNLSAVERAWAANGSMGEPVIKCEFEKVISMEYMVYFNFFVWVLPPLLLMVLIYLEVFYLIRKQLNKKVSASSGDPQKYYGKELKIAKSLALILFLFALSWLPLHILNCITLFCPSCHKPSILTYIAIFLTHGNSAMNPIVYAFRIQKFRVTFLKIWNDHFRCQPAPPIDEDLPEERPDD
The experiment in a line: Displacement of [3H]DPCPX from human adenosine A1 receptor expressed in HEK293 cells. It is filed as cell-based.

Data set [3] concerns the target T2, Adenosine receptor A2a (Homo sapiens, UniProt P29274). The experiment in a line: Displacement of [3H]ZM241385 from human adenosine A2A receptor expressed in HEK293 cells. It is filed as cell-based. On the technique in general: In a radioligand displacement assay an active substance lowers the binding of a labelled ligand.
The target in data set [4] is T2, Adenosine receptor A2a. The experiment in a line: Antagonist activity at human adenosine A2A receptor assessed as inhibition of CGS-21680-stimulated cAMP production. It is filed as functional. On the technique in general: Changes in cAMP serve as a functional read-out for many G protein-coupled receptors.
Data set [5] is described as follows: Solubility in phosphate buffer at pH 7.2. Type of data set: physicochemical.
A short description of data set [6]: Solubility at pH >=2. It is filed as physicochemical.
Data set [7] in a line: Solubility in phosphate buffered saline. Type of data set: physicochemical.

T2 sequence (P29274 whole entry): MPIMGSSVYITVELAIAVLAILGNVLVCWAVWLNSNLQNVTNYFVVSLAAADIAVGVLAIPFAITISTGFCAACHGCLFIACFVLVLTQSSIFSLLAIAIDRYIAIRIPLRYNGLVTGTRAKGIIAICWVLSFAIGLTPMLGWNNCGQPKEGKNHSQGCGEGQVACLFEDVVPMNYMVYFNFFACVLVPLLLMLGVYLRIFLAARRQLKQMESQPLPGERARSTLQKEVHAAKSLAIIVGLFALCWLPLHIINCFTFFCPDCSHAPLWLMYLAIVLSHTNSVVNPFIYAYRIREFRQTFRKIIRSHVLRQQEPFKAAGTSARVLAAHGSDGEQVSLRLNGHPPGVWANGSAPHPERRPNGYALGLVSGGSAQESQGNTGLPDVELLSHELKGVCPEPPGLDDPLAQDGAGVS

Broadly, the Ki is a dissociation constant, usually derived from enzyme kinetics or from competition with a known ligand. Turning to `COC[C@H]1CCCN1c1cc(NC(C)=O)nc(-c2nccs2)n1`, in data set [1], the Ratio Ki was 7.5. The figures for the Ki in data set [2] and in data set [3] were 150 nM and 20 nM, respectively.

Take `CC(=O)Nc1cc(N2CCC[C@@H]2COc2ccccn2)nc(-n2nc(C)cc2C)n1`: the Ratio Ki in data set [1] was 1.5. For the same compound, the inhibition constant (Ki) amounted to 64 nM in data set [2] and 40 nM in data set [3].

In general, IC50 refers to the concentration at which inhibition is half-maximal. Consider `CC(=O)Nc1cc(N2CCCC2=O)nc(-n2nc(C)cc2C)n1`, for which, in data set [1], the Ratio Ki came to 76. Also, the half-inhibitory concentration (IC50) in data set [4] was found to be 1000 nM. The Ki in data set [2] stood at 913 nM; in data set [3], 12 nM.

Consider `COC[C@H]1CCCN1c1cc(NC(C)=O)nc(-n2nc(C)cc2C)n1`, for which, in data set [1], the Ratio Ki is 34.

Consider `CC(=O)Nc1cc(N2CCCC2)nc(-n2nc(C)cc2C)n1`, for which, in data set [1], the Ratio Ki is 45. Besides, the inhibitory constant (Ki) in data set [2] was 4950 nM; in data set [3], 110 nM.

For the compound `CCC(=O)Nc1cc(N2CCC[C@@H]2COC)nc(-n2nc(C)cc2C)n1`, the Ratio Ki in data set [1] is 11. The inhibition constant Ki in data set [2] came out at 64 nM; in data set [3], 5.9 nM.

For the compound `CCOCC1CCCN1c1cc(NC(C)=O)nc(-n2nc(C)cc2C)n1` (centres undefined), the Ratio Ki in data set [1] is 9. Further, the Ki came out at 4190 nM in data set [2] and 455 nM in data set [3].

Turning to `COC[C@H]1CCCN1c1cc(NC(C)=O)nc(-c2ccccn2)n1`, the Ratio Ki in data set [1] came to 1.5. For the same compound, the Ki worked out at 69 nM in data set [2] and 46 nM in data set [3].

For the compound `CC(=O)Nc1cc(N2CCC[C@H]2COc2ccccn2)nc(-n2nc(C)cc2C)n1`, the Ratio Ki in data set [1] is 28. Besides, the inhibitory constant (Ki) in data set [2] was 12100 nM; in data set [3] it was 439 nM.

For the compound `COC[C@@H]1CCCN1c1cc(NC(C)=O)nc(-c2nccs2)n1`, the Ratio Ki in data set [1] is 23. Further, the figures for the inhibition constant (Ki) in data set [2] and in data set [3] were 354 nM and 15 nM, respectively.

Take `CC(=O)Nc1cc(N2CCN(C)CC2)nc(-n2nc(C)cc2C)n1`: the results for the inhibition constant (Ki) in data set [2] and in data set [3] were over 10000 nM and 1870 nM, respectively.

For orientation: solubility means the concentration that dissolves in the medium under given conditions. A higher solubility goes with much dissolved substance. In turn, `CC(=O)Nc1cc(N2CCc3ccccc3C2)nc(-n2nc(C)cc2C)n1` had a solubility in data set [5] of 10 µg/mL (≈ 27.6 µM). Moreover, the Ratio Ki in data set [1] worked out at 77. Also, the figures for the inhibition constant (Ki) in data set [2] and in data set [3] were 323 nM and 4.2 nM, respectively.

The compound `CC(=O)Nc1cc(-c2ccccc2O)nc(-n2nc(C)cc2C)n1` came in with a Ki in data set [3] of 1.9 nM.

`COC[C@@H]1CCCN1c1cc(NC(C)=O)nc(-c2ccccn2)n1`: in data set [1], the Ratio Ki was 2.5. Also, the Ki in data set [2] came out at 125 nM; in data set [3], 50 nM.

Consider `COC[C@H]1C[C@@H](OC)CN1c1cc(NC(C)=O)nc(-n2nc(C)cc2C)n1`, for which, in data set [1], the Ratio Ki is 27. For the same compound, the Ki in data set [2] was determined as 620 nM; in data set [3] it was 23 nM.

On to `CC(=O)Nc1cc(N2CCOCC2)nc(-n2nc(C)cc2C)n1`, for which, in data set [1], the Ratio Ki was found to be 26. The inhibitory constant (Ki) in data set [2] was determined as 8120 nM; in data set [3] it was 313 nM.

For `COC(=O)[C@@H]1CCCN1c1cc(NC(C)=O)nc(-n2nc(C)cc2C)n1`, in data set [3], the inhibition constant Ki was over 10000 nM.

`COC[C@H]1C[C@H](OC)CN1c1cc(NC(C)=O)nc(-n2nc(C)cc2C)n1`: the Ratio Ki in data set [1] is 47. Further, the Ki in data set [2] was found to be 352 nM; in data set [3] it was 7.5 nM.

`CC(=O)Nc1cc(N2CCCC2CO)nc(-n2nc(C)cc2C)n1` (single isomer, unassigned): the Ratio Ki in data set [1] was found to be 59. Also, the Ki amounted to 1530 nM in data set [2] and 25.8 nM in data set [3].

For `COc1cncc(-c2cc(NC(C)=O)nc(-n3nc(C)cc3C)n2)c1`, in data set [6], the solubility amounted to 10 µg/mL (≈ 29.6 µM). Moreover, the Ratio Ki in data set [1] stood at 82. The half-maximal inhibitory concentration (IC50) in data set [4] was found to be 85 nM.

Turning to `COC[C@H]1CCCN1c1cc(N)nc(-n2nc(C)cc2C)n1`, the Ratio Ki in data set [1] was 9.5. The inhibition constant (Ki) in data set [2] came to 2470 nM; in data set [3] it was 261 nM.

For the compound `CC(=O)Nc1cc(N2CCCCC2)nc(-n2nc(C)cc2C)n1`, the Ratio Ki in data set [1] was 43. The results for the inhibition constant Ki in data set [2] and in data set [3] were 3360 nM and 78 nM, respectively.

On to `CCN(CC)c1cc(NC(C)=O)nc(-n2nc(C)cc2C)n1`, for which the Ratio Ki in data set [1] amounted to 49. Further, the results for the Ki in data set [2] and in data set [3] were 4470 nM and 92 nM, respectively.

With `COC(=O)[C@H]1CCCN1c1cc(NC(C)=O)nc(-n2nc(C)cc2C)n1`, in data set [1], the Ratio Ki came to 14. Besides, the Ki in data set [2] came out at 2930 nM; in data set [3], 205 nM.

On to `CC(=O)Nc1cc(N2CCCC2C)nc(-n2nc(C)cc2C)n1` (centres undefined), for which the Ratio Ki in data set [1] worked out at 37. In addition, the Ki in data set [2] amounted to 1040 nM; in data set [3] it was 28 nM.

`COC[C@H]1CCCN1c1cc(NC(C)=O)nc(-n2nc(C)cc2C)n1.Cl` had a solubility in data set [7] of over 6700 µg/mL.

Regarding `COC[C@H]1CCCN1c1cc(NC(C)=O)nc(-c2cccs2)n1`, in data set [1], the Ratio Ki worked out at 4.3. For the same compound, the figures for the inhibition constant Ki in data set [2] and in data set [3] were 203 nM and 47 nM, respectively.

On to `COC[C@H]1CCCN1c1cc(NC(C)=O)nc(-c2ccc(C)o2)n1`, for which the Ratio Ki in data set [1] stood at 4. Besides, the Ki came to 10.5 nM in data set [2] and 2.7 nM in data set [3].

As for `COCCC1CCCCN1c1cc(NC(C)=O)nc(-n2nc(C)cc2C)n1` (single isomer, unassigned), the Ratio Ki in data set [1] was found to be 17. Besides, the inhibition constant (Ki) in data set [2] was found to be 4690 nM; in data set [3] it was 275 nM.

Take `COC[C@@H]1CCCN1c1cc(NC(C)=O)nc(-c2cccs2)n1`: the Ratio Ki in data set [1] stood at 12. Moreover, the results for the Ki in data set [2] and in data set [3] were 325 nM and 27 nM, respectively.

On to `COC[C@H]1CCCN1c1cc(NC(=O)OC)nc(-n2nc(C)cc2C)n1`, for which, in data set [1], the Ratio Ki was 50. Moreover, the values for the Ki in data set [2] and in data set [3] were 960 nM and 19 nM, respectively.

Take `COC[C@H]1CCCN1c1cc(NC(=O)NC(C)C)nc(-n2nc(C)cc2C)n1`: the Ratio Ki in data set [1] was determined as 29. For the same compound, the results for the Ki in data set [2] and in data set [3] were 1280 nM and 43 nM, respectively.

For the compound `COC[C@@H]1CCC(C)N1c1cc(NC(C)=O)nc(-n2nc(C)cc2C)n1` (some centres undefined), the Ratio Ki in data set [1] was 35. In addition, the Ki in data set [2] worked out at 1640 nM; in data set [3] it was 47 nM.

For the compound `COC[C@@H]1CCCN1c1cc(NC(C)=O)nc(-n2nc(C)cc2C)n1`, in data set [1], the Ratio Ki was 14. In addition, the inhibition constant Ki in data set [2] came out at 4470 nM; in data set [3], 324 nM.

Turning to `COC[C@@H]1CCCN1c1cc(NC(C)=O)nc(-c2ccc(C)o2)n1`, the Ratio Ki in data set [1] worked out at 2. For the same compound, the inhibition constant Ki came to 215 nM in data set [2] and 119 nM in data set [3].

Regarding `COCC1CCCN1c1cc(NC(C)=O)nc(-n2nc(C)cc2C)n1` (centres undefined), in data set [1], the Ratio Ki stood at 35. Moreover, the Ki in data set [2] worked out at 320 nM; in data set [3], 9 nM.

Turning to `COC[C@H]1CCCN1c1cc(NC(=O)CC(C)C)nc(-n2nc(C)cc2C)n1`, the Ratio Ki in data set [1] stood at 2. Moreover, the inhibition constant (Ki) in data set [2] amounted to 92 nM; in data set [3], 50 nM.
